According to PubChem BioAssay (NCI):
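The compound was tested at five concentrations on cells cultured in 96-well plates, with a 48-hour exposure period. GI50: concentration for 50% inhibition of growth. TGI is the concentration that stops growth completely.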

Columns and labels:
Test in all cases: growth of human tumour cells (NCI), 48 h
[1] = test system: MCF7 breast
[2] = test system: OVCAR-4 ovarian
[3] = test system: COLO 205 colon
[4] = test system: NCI-H460 lung
[5] = test system: DU-145 prostate
[6] = test system: BT-549 breast
[7] = test system: TK-10 renal
[8] = test system: T-47D breast
[9] = test system: SK-MEL-2 melanoma
[10] = test system: OVCAR-3 ovarian

Compound	TGI [1]	TGI [2]	TGI [3]	TGI [4]	TGI [5]	TGI [6]	TGI [7]	TGI [8]	TGI [9]	TGI [10]	GI50 [1]	GI50 [2]	GI50 [3]	GI50 [4]	GI50 [5]	GI50 [6]	GI50 [7]	GI50 [8]	GI50 [9]	GI50 [10]
CC(C)=CC(O)C/C(C)=C/CC/C(C)=C/CCC1(C)C(CCCO)/C(=C(/C)C=O)CCC1(C)O (stereo not given)	79.2 µM	> 100 µM	> 100 µM	> 100 µM	> 100 µM	> 100 µM	> 100 µM	> 100 µM	> 100 µM	> 100 µM	–	–	–	–	–	–	–	–	–	–
C=C(C)[C@@H]1CC[C@]2(C(=O)O)CC[C@]3(C)[C@H](CC[C@@H]4[C@@]5(C)C[C@@H](CC#Cc6ccc(Br)cc6)C(=O)C(C)(C)[C@@H]5CC[C@]43C)[C@@H]12	> 100 µM	> 100 µM	> 100 µM	> 100 µM	> 100 µM	55 µM	> 100 µM	> 100 µM	9.48 µM	> 100 µM	4.94 µM	4.95 µM	18.2 µM	5.71 µM	7.59 µM	21 µM	23.7 µM	9.02 µM	2580 nM	4.73 µM
CCCCCCCCCCCCCCCCOC(=O)c1c(C)[nH]c(/C=C2\N=C(c3ccc[nH]3)C=C2OC)c1C	> 100 µM	53.6 µM	> 100 µM	> 100 µM	> 56.5 µM	20.4 µM	3.36 µM	12.8 µM	1.34 µM	6.91 µM	0.0686 µM	2.71 µM	3.81 µM	0.0429 µM	0.406 µM	2.23 µM	0.759 µM	0.433 µM	249 nM	1.67 µM
CO/N=C(\COc1ccc2c(c1)oc(=O)c1cc(OC)ccc12)c1cccc(OC)c1	> 100 µM	> 100 µM	> 100 µM	> 100 µM	> 100 µM	> 100 µM	> 100 µM	> 100 µM	> 100 µM	> 100 µM	> 100 µM	> 100 µM	> 100 µM	> 100 µM	> 100 µM	> 100 µM	> 100 µM	> 100 µM	> 100000 nM	> 100 µM
COc1cc(Nc2ncc3c(C)nc(-c4cccc(Oc5ccccc5)c4)n3n2)cc(OC)c1OC	> 24.1 µM	> 25 µM	> 25 µM	> 25 µM	> 25 µM	> 25 µM	> 20.6 µM	17.2 µM	9.71 µM	11.2 µM	7.18 µM	4.78 µM	7.68 µM	3.21 µM	3.05 µM	6.86 µM	3.52 µM	4.51 µM	2580 nM	4.64 µM
O[C@@H]1CCCN1Cc1cc2cc3c(cc2c2cc(OCc4ccccc4)ccc12)OCO3	5.07 µM	20.3 µM	3.46 µM	7.38 µM	21.8 µM	26.4 µM	19.8 µM	11.7 µM	4.79 µM	14.5 µM	2.15 µM	5.45 µM	1.7 µM	2.6 µM	5.24 µM	11 µM	5.85 µM	2.93 µM	2230 nM	3.73 µM
